Molecular target: GABAC receptor ρ1 subunit (Homo sapiens, UniProt P24046)
Experiment: two-electrode voltage clamp in Xenopus oocytes expressing human ρ[…]
Format: cell-based

Chain of GABAC receptor ρ1 subunit (P24046 22-479): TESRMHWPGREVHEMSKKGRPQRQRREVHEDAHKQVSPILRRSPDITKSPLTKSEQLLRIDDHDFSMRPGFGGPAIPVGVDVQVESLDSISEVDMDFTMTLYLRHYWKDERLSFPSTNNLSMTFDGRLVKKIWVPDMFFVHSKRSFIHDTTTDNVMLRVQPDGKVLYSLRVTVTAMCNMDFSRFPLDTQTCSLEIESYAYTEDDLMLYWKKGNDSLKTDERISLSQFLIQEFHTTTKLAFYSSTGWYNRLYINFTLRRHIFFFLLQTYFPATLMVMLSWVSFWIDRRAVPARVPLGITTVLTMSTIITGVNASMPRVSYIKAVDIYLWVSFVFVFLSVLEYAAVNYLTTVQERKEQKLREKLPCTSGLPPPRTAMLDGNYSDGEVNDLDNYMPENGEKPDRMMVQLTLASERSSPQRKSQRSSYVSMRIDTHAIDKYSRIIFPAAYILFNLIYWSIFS

## CC(C)=CCC[C@](C)(O)[C@H]1CC[C@]2(C)[C@@H]1[C@H](O)C[C@@H]1[C@@]3(C)CC[C@H](O)C(C)(C)[C@@H]3[C@@H](O)C[C@]12C [M4, protopanaxatriol]
  IC50: 45.7 ± 3.9 µM

— article PMC3634089 (The Korean Journal of Physiology & Pharmacology : …, 2013)
